These results are taken from publication PMC6143478, “Lipophilic activated ester prodrug approach for drug delivery to the intestinal lymphatic system” (Journal of Controlled Release, 2018).

The nature of series [1]: Biodistribution to mesenteric lymph nodes (MLN) and lymph following oral administration in rats. The note with it: BEX analyte, dose equivalent to 10 mg/kg BEX, rat, in words. Format: in vivo. The method, then:
(§1) The protocols for pharmacokinetic and biodistribution experiments in this study were reviewed and approved by the University of Nottingham Ethical Review Committee in accordance with the Animals [Scientific Procedures] Act 1986. Male Sprague Dawley rats (Charles River Laboratories, UK) weighing 350–380 g were used. The animals were housed in the Bio Support Unit, University of Nottingham. Continuous lymph collection was performed according to a protocol approved by the Institutional Animal Care and Use Committee at Rutgers, The State University of New Jersey. Male Sprague Dawley rats (Envigo, Inc., NJ, USA) weighing 300–350 g were used for the continuous lymph collection. Animals were allowed free access to food and water and were acclimatised for at least 6 days prior to any procedures at both institutions in a controlled-temperature environment with 12 h light/dark cycles.
Formulations were prepared as described in the above pharmacokinetic study and were delivered by an oral gavage. Animals were euthanised at pre-determined time points. Blood was collected from the posterior vena cava and lymph samples were taken from the mesenteric lymph duct. MLNs were dissected and collected as previously described. The MLNs were isolated from surrounding tissue with care not to compromise the integrity of the lymph nodes. The MLNs were homogenised (POLYTRON® PT 10–35 GT, Kinematica AG, Luzern, Switzerland) with 10 mg/mL NaF in water (1,2, w/v) on an ice bath prior to sample preparation for HPLC analysis.
(§2) A combination of protein precipitation and liquid-liquid extraction was applied to samples prior to HPLC injection. To 100 μL sample, 300 μL of acetonitrile was added for protein precipitation and then 300 μL of pH modifier was added when necessary (Supplementary Material Table S2). […] The organic layer was separated and evaporated under N2 gas. Reconstitution solvent (100 μL) was used as detailed in Supplementary Material Table S2 and 40 μL was injected into the HPLC-UV system. […] Therefore, storage and preparation of all samples were performed within the time frame and conditions of confirmed stability.
(§3) The HPLC-UV system consisting of a separation module (Waters Alliance 2695) equipped with a UV detector (Waters 996) was used for analysis. Samples in the autosampler were maintained at 4 °C and the column at 40 °C. The stationary and mobile phases were used as specified in Supplementary Material Table S2. BEX and its prodrugs were detected at 259 nm and RA and its prodrugs at 357 nm.

Series [2] is described as follows: Plasma pharmacokinetics following oral administration in rats. The format is in vivo, rat. The note with it: for AUC(0-inf) / AUC(0-t) / half-life / Cmax: male, Sprague Dawley, rat, plasma, po, 10 mg/kg, dose equivalent to 10 mg/kg BEX; for AUC(0-inf) / AUC(0-t) / half-life: BEX in plasma; for Cmax: Cmax of BEX in plasma, read-out: C0 or Cmax; for Foral: oral bioavailability of BEX, calculated on AUC0→t after i.v. BEX 2.5 mg/kg [33]. The method, then:
as §1
Jugular vein cannulation surgery procedures were conducted under general anaesthesia for blood sampling. The animals were allowed two days to recover following surgery and were fasted up to 12 h prior to experiments with free access to drinking water. Formulations were prepared at concentrations equivalent to 2.5 mg/mL and 10 mg/mL of active drug for intravenous and oral administration, respectively. Solutions of the tested compounds in PEG400 were used as the dosing vehicle for intravenous administration. For oral administration, all prodrugs were administered as a solution in sesame oil to stimulate intestinal lymphatic transport. For oral administration of BEX and RA, oral gavage of sesame oil was administered prior to administration of BEX or RA solution in PEG400 due to low solubility of the two compounds in TG. In the lipid-free group BEX was administered orally formulated as a solution in PEG400. The formulations were administered by an oral gavage for oral administration or via the jugular vein cannula followed by 0.3 mL heparinised saline (50 IU/mL) for intravenous injection. Blood samples of 250 μL volume were collected from the cannula at pre-determined time points following administration. NaF (10 mg/mL) was used as an anticoagulant and inhibitor of esterase activity. Blood samples were centrifuged at 3000 g for 10 min to obtain plasma.
as §2, §3
Assessment of statistical significance of differences between two groups was conducted by means of two-tailed unpaired t-test. Statistical significance among three or more groups was assessed by means of a one-way ANOVA followed by Tukey's multiple comparisons test. Statistical significance was declared when a p-value was lower than 0.05. The analyses were performed on GraphPad Prism version 7.01 (GraphPad Software, Inc., La Jolla, CA, USA). The concentrations that inhibited cell growth by 50% (GI50) were also calculated using GraphPad Prism and isobole plots were presented following a previously reported method to assess synergy between BEX and RA [28]. […]

A further series relates to VAL cells. The series is described as follows: Cell growth inhibition MTT assay, VAL. The format is cell-based. The note with it: 72 h, RA 0.400 μM (0.625% × GI50 of RA). The method, then: (§4) DLBCL cell lines of DOHH2 and VAL were obtained from the Gene Regulation and RNA Biology group in University of Nottingham. Cell growth inhibition was assessed by MTT assay with a minor modification from previously reported methods [[25], [26], [27]]. Cells were seeded at a density of 2000 cells/well and allowed to adapt overnight. Test compounds were serial-diluted with dimethyl sulfoxide (DMSO) and spiked on the next day to yield 0.1% (v/v) DMSO. Control wells were treated with 0.1% DMSO vehicle alone. At the time of drug addition, separately prepared wells were processed for Tzero readings as previously described. The treated cells were incubated further for 72 h at 37 °C and processed for cell growth assessments.
(§5) Assessment of statistical significance of differences between two groups was conducted by means of two-tailed unpaired t-test. Statistical significance among three or more groups was assessed by means of a one-way ANOVA followed by Tukey's multiple comparisons test. Statistical significance was declared when a p-value was lower than 0.05. […] Pharmacokinetic parameters were calculated by non-compartmental analysis using Phoenix WinNonlin 6.3 software (Pharsight, Mountain View, CA, USA).
(§6) The anticancer effects of BEX and RA were assessed by MTT assay using DLBCL cell lines. The GI50 of each drug was firstly determined in each cell line. […]

Another series has as its system DOHH2 cells. The series is described as follows: Cell growth inhibition MTT assay, DOHH2. The note with it: 72 h, RA 0.425 μM (0.625% × GI50 of RA). Format: cell-based. On the procedure: as §4, §5, §6
A short description of series [3]: TG solubility measurement in sesame oil. Format: physicochemical. The note with it: oil or lipid, thermodynamic from solid, 37 °C. On the procedure: Compounds were dissolved in fresh aliquots of sesame oil in excessive amounts in glass vials (in triplicate) and stirred using a magnetic stirring bar at 37 °C for 72 h. The mixture was then filtered by centrifugation in a Costar Spin-X Centrifuge Tube (Fisher Scientific, Loughborough, UK) at 2400 g for 5 min. The filtrates were analysed for concentration of the tested compounds by means of HPLC.

The subject of a further series is human chylomicrons (CM). The series is described as follows: Ex vivo association with human plasma-derived chylomicrons. Format: in vitro ADME. The note with it: in words. The source says:
The protocol for preparation of human plasma-derived CM emulsion was approved by the Faculty of Medicine and Health Sciences Research Ethics Committee, Queens Medical Centre, Nottingham University Hospitals (BT12102015 CBS SoP). Healthy male volunteers of 19–40 years old and with body mass index of 18.5–25.0 were enrolled in the study after providing informed consent. The participants were excluded if any medication was used within one week prior to enrolment. On the morning of the study, participants received a high-fat meal (equivalent to a full English breakfast). Between 3 and 4 h following breakfast, 30 mL of blood was collected using heparinised tubes (Vacutainer® Blood Collection Tubes) and centrifuged (800 g, 10 min, 15 °C) to obtain plasma.
CM separation was performed as previously reported with minor modifications. Briefly, KBr (0.57 g) was mixed with 4 mL of plasma to yield density of 1.1 g/mL. PBS with densities of 1.006, 1.019, and 1.063 g/mL were prepared by adding appropriate amounts of KBr. These PBS of different densities were layered on top of the plasma to build density gradient layers in polyallomer ultracentrifuge tubes. The samples were then centrifuged at 268,350 g for 35 min at 15 °C using an ultracentrifuge (SORVALL® TH-641 Rotor, Thermo Fisher Scientific, UK). Following ultracentrifugation, approximately 1 mL of the upper layer containing CM was collected. TG concentration of CM emulsion was assessed using the TG enzymatic kit (Sigma Aldrich, Dorset, UK). TG concentration of the emulsion was adjusted to 100 mg/dL by diluting with PBS of 1.006 g/mL density. The CM emulsion was stored at 4 °C until the association assay (˂24 h).
The association of the compounds with artificial lipid particle emulsion and human CM was assessed using previously reported methodology with minor modifications. Briefly, 1 mL of artificial lipid particle or CM emulsions (TG concentration 100 mg/dL) was used for the association assay. The emulsion was spiked with stock solutions of tested compounds (in acetonitrile) to give a final concentration of 1.755 μM. The reaction mixtures were incubated at 37 °C for 1 h with magnetic stirring at 300 rpm. Following the incubation, density gradient ultracentrifugation was applied as described above to isolate the artificial lipid particles or CM associated with the tested compounds from the rest of the experimental medium. All experiments were conducted in quintuplicates or above.

In brackets after ≈: the same amount, converted by molar mass. Where two headings read alike, the source gives them in different places.

On to `C=C(c1ccc(C(=O)O)cc1)c1cc2c(cc1C)C(C)(C)CCC2(C)C` [BEX, bexarotene], for which, in series [1], the “concentrations of BEX in intestinal lymphatics (MLNs, lymph) relative to plasma” value is reported as “lower than those in plasma”. In series [2] (p.o. (lipid-based)), the AUC(0-inf) came to 6620 ± 1310 ng·h/mL, the AUC(0-t) was 5660 ± 1760 ng·h/mL, the half-life was 3.7 ± 1.2 h and the Cmax stood at 1100 ± 432 ng/mL. In addition, the Foral in series [2] (p.o. (lipid-based)) is 30.6 ± 9.5%. Further, in series [2] (p.o. (lipid-free)), the AUC(0-t) is 4910 ± 1790 ng·h/mL, the half-life was 3 ± 0.7 h, the Cmax was 899 ± 338 ng/mL and the Foral is 26.5 ± 9.6%. Moreover, the AUC(0-inf) in series [2] (p.o. (lipid-free, PEG400)) was 5840 ± 2140 ng·h/mL. For the same compound, in the series on VAL cells, the “cell growth inhibition by BEX in conjunction with RA” value is “significantly and synergistically inhibited”. The “cell growth inhibition by BEX in conjunction with RA” value in the series on DOHH2 cells is “significantly and synergistically inhibited”.
Regarding `C=C(c1ccc(C(=O)OCC(=O)N(CC)CC)cc1)c1cc2c(cc1C)C(C)(C)CCC2(C)C` [prodrug 20], the concentration in solution in series [3] (solubility at 72 h) came to 2670 ± 60 µg/mL (≈ 5.78 mM). The “difference in affinity for artificial emulsion versus natural human CM” value in the series on human chylomicrons (CM) is reported as “significant differences”.
